The values below come from patent publication US9125913B2, “Bcl-2-selective apoptosis-inducing agents for the treatment of cancer and immune diseases” (AbbVie Inc., priority 2008, dated 2015).

For this experiment, the system named is GST-Bcl-2. Briefly: TR-FRET binding assay, Bcl-2. The conditions noted are these: TR-FRET Ki values. The essentials:
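Ki values come from Wang's competitive-binding equation applied to TR-FRET signal (excitation 340/35 nm; emission 520/525 nm F-Bak peptide, 495/510 nm Tb antibody). Protein, probe and antibody incubated with compound 3 h at room temperature; dilution series began at 50 μM as 2× stock in 10% DMSO.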
Background: Time-resolved FRET reads energy transfer from a long-lived donor to a nearby acceptor.
With `CC1(C)CCC(CN2CCN(c3ccc(C(=O)NS(=O)(=O)c4ccc(NCCC#N)c([N+](=O)[O-])c4)c(Oc4ccc5[nH]ccc5c4)c3)CC2)=C(c2ccc(Cl)cc2)C1` [EXAMPLE 319, 4-(4-{[2-(4-chlorophenyl)-4,4-dimethylcyclohex-1-en-1-yl]methyl}piperazin-1-yl)-N-({4-[(2-cyanoethyl)amino]-3-nitrophenyl}sulfonyl)-2-(1H-indol-5-yloxy)benzamide], the “Binding selectivity ratio (Bcl-XL Ki/Bcl-2 Ki)” value (shortened to “Binding selectivity ratio”) came to 503.4.

Take `CC1(C)CCC(CN2CCN(c3ccc(C(=O)NS(=O)(=O)c4ccc(NCC5CCOCC5)c([N+](=O)[O-])c4)c(Oc4ccc5[nH]ccc5c4)c3)CC2CO)=C(c2ccc(Cl)cc2)C1` (stereo not shown) [EXAMPLE 236, 4-[4-{[2-(4-chlorophenyl)-4,4-dimethylcyclohex-1-en-1-yl]methyl}-3-(hydroxymethyl)piperazin-1-yl]-2-(1H-indol-5-yloxy)-N-({3-nitro-4-[(tetrahydro-2H-pyran-4-ylmethyl)amino]phenyl}sulfonyl)benzamide]: the “Binding selectivity ratio” value is given as above 1787.6.

In the case of `CN(C)CCCN(C)c1ccc(S(=O)(=O)NC(=O)c2ccc(N3CCN(Cc4ccccc4-c4ccc(Cl)cc4)CC3)cc2Oc2ccccc2)cc1[N+](=O)[O-]` [Example 87, 4-{4-[(4′-chloro-1,1′-biphenyl-2-yl)methyl]piperazin-1-yl}-N-({4-[[3-(dimethylamino)propyl](methyl)amino]-3-nitrophenyl}sulfonyl)-2-phenoxybenzamide], the “Binding selectivity ratio” value was determined as 533.8.

With `CC1(C)CCC(CN2CCN(c3ccc(C(=O)NS(=O)(=O)c4ccc(NCCN5CCNC5=O)c([N+](=O)[O-])c4)c(Oc4ccc5[nH]ccc5c4)c3)CC2)=C(c2ccc(Cl)cc2)C1` [EXAMPLE 268, 4-(4-{[2-(4-chlorophenyl)-4,4-dimethylcyclohex-1-en-1-yl]methyl}piperazin-1-yl)-2-(1H-indol-5-yloxy)-N-[(3-nitro-4-{[2-(2-oxoimidazolidin-1-yl)ethyl]amino}phenyl)sulfonyl]benzamide], the “Binding selectivity ratio” value is given as 1563.9.

As to `CC1(C)CCC(CN2CCN(c3ccc(C(=O)NS(=O)(=O)c4ccc(CCC5OCCO5)c([N+](=O)[O-])c4)c(Oc4ccc5[nH]ccc5c4)c3)CC2)=C(c2ccc(Cl)cc2)C1` [EXAMPLE 278, 4-(4-{[2-(4-chlorophenyl)-4,4-dimethylcyclohex-1-en-1-yl]methyl}piperazin-1-yl)-N-({4-[2-(1,3-dioxolan-2-yl)ethyl]-3-nitrophenyl}sulfonyl)-2-(1H-indol-5-yloxy)benzamide], the “Binding selectivity ratio” value was above 929.4.

Consider `O=C(NS(=O)(=O)c1ccc(NC2CCN(C3CCOCC3)CC2)c([N+](=O)[O-])c1)c1ccc(N2CCN(Cc3ccc(C(F)(F)F)cc3-c3ccc(Cl)cc3)CC2)cc1Oc1ccc2[nH]ccc2c1` [EXAMPLE 358, 4-(4-{[4′-chloro-5-(trifluoromethyl)-1,1′-biphenyl-2-yl]methyl}piperazin-1-yl)-2-(1H-indol-5-yloxy)-N-({3-nitro-4-[(1-tetrahydro-2H-pyran-4-ylpiperidin-4-yl)amino]phenyl}sulfonyl)benzamide], for which the “Binding selectivity ratio” value is above 121.8.

Consider `O=C(NS(=O)(=O)c1ccc(NCCCN2CCOCC2)c(S(=O)(=O)C(F)(F)F)c1)c1ccc(N2CCN(Cc3ccccc3-c3ccc(Cl)cc3)CC2)cc1Oc1cccc2[nH]ccc12` [Example 65, 4-{4-[(4′-chloro-1,1′-biphenyl-2-yl)methyl]piperazin-1-yl}-2-(1H-indol-4-yloxy)-N-({4-[(3-morpholin-4-ylpropyl)amino]-3-[(trifluoromethyl)sulfonyl]phenyl}sulfonyl)benzamide], for which the “Binding selectivity ratio” value amounted to 4.8.

For the compound `CN(C)CC(=O)N1CCO[C@H](COc2ncc(S(=O)(=O)NC(=O)c3ccc(N4CCN(CC5=C(c6ccc(Cl)cc6)CC(C)(C)CC5)CC4)cc3Oc3cccc4[nH]ncc34)cc2Cl)C1` [EXAMPLE 425, N-[(5-chloro-6-{[(2S)-4-(N,N-dimethylglycyl)morpholin-2-yl]methoxy}pyridin-3-yl)sulfonyl]-4-(4-{[2-(4-chlorophenyl)-4,4-dimethylcyclohex-1-en-1-yl]methyl}piperazin-1-yl)-2-(1H-indazol-4-yloxy)benzamide], the “Binding selectivity ratio” value came out at 1282.

As for `CC1(C)CCC(CN2CCN(c3ccc(C(=O)NS(=O)(=O)c4ccc(NCC5CN(C6CC6)CCO5)c([N+](=O)[O-])c4)c(Oc4cccc5[nH]ncc45)c3)CC2)=C(c2ccc(Cl)cc2)C1` (stereo not shown) [EXAMPLE 411, 4-(4-{[2-(4-chlorophenyl)-4,4-dimethylcyclohex-1-en-1-yl]methyl}piperazin-1-yl)-N-[(4-{[(4-cyclopropylmorpholin-2-yl)methyl]amino}-3-nitrophenyl)sulfonyl]-2-(1H-indazol-4-yloxy)benzamide], the “Binding selectivity ratio” value amounted to 2352.

`CN(C)CC(=O)N1CCO[C@@H](COc2ncc(S(=O)(=O)NC(=O)c3ccc(N4CCN(CC5=C(c6ccc(Cl)cc6)CC(C)(C)CC5)CC4)cc3Oc3cccc4[nH]ncc34)cc2Cl)C1` [compound 426, N-[(5-chloro-6-{[(2R)-4-(N,N-dimethylglycyl)morpholin-2-yl]methoxy}pyridin-3-yl)sulfonyl]-4-(4-{[2-(4-chlorophenyl)-4,4-dimethylcyclohex-1-en-1-yl]methyl}piperazin-1-yl)-2-(1H-indazol-4-yloxy)benzamide]: the “Binding selectivity ratio” value was found to be 604.2.

For the compound `CC1(C)CCC(CN2CCN(c3ccc(C(=O)NS(=O)(=O)c4ccc(NCCCN5CCNC(=O)C5)c([N+](=O)[O-])c4)c(Oc4cccc5[nH]ccc45)c3)CC2)=C(c2ccc(Cl)cc2)C1` [EXAMPLE 223, 4-(4-{[2-(4-chlorophenyl)-4,4-dimethylcyclohex-1-en-1-yl]methyl}piperazin-1-yl)-2-(1H-indol-4-yloxy)-N-[(3-nitro-4-{[3-(3-oxopiperazin-1-yl)propyl]amino}phenyl)sulfonyl]benzamide], the “Binding selectivity ratio” value worked out at 574.1.

Take `CN1CCN(Nc2ccc(S(=O)(=O)NC(=O)c3ccc(N4CCN(CC5=C(c6ccc(Cl)cc6)CCC(O)C5)CC4)cc3Oc3ccc4[nH]ccc4c3)cc2[N+](=O)[O-])CC1` (stereo not shown) [EXAMPLE 226, 4-(4-{[2-(4-chlorophenyl)-5-hydroxycyclohex-1-en-1-yl]methyl}piperazin-1-yl)-2-(1H-indol-5-yloxy)-N-({4-[(4-methylpiperazin-1-yl)amino]-3-nitrophenyl}sulfonyl)benzamide]: the “Binding selectivity ratio” value was 577.7.

With `CC1(C)CCC(CN2CCN(c3ccc(C(=O)NS(=O)(=O)c4ccc(N5CCOCC5)c([N+](=O)[O-])c4)c(Oc4ccc5[nH]ccc5c4)c3)CC2)=C(c2ccc(Cl)cc2)C1` [EXAMPLE 270, 4-(4-{[2-(4-chlorophenyl)-4,4-dimethylcyclohex-1-en-1-yl]methyl}piperazin-1-yl)-2-(1H-indol-5-yloxy)-N-[(4-morpholin-4-yl-3-nitrophenyl)sulfonyl]benzamide], the “Binding selectivity ratio” value is given as above 199.1.

For the compound `CO[C@H]1CC[C@@H](CNc2ccc(S(=O)(=O)NC(=O)c3ccc(N4CCN(CC5=C(c6ccc(Cl)cc6)CC(C)(C)CC5)CC4)cc3Oc3ccc4[nH]ccc4c3)cc2[N+](=O)[O-])CC1` [EXAMPLE 313, Cis-4-(4-{[2-(4-chlorophenyl)-4,4-dimethylcyclohex-1-en-1-yl]methyl}piperazin-1-yl)-2-(1H-indol-5-yloxy)-N-[(4-{[(4-methoxycyclohexyl)methyl]amino}-3-nitrophenyl)sulfonyl]benzamide], the “Binding selectivity ratio” value is 1500.

Consider `CC1(C)CCC(CN2CCN(c3ccc(C(=O)NS(=O)(=O)c4ccc(NCC5CN(CC(F)F)CCO5)c([N+](=O)[O-])c4)c(Oc4cccc5[nH]cnc45)c3)CC2)=C(c2ccc(Cl)cc2)C1` (stereo not shown) [EXAMPLE 415, 2-(1H-benzimidazol-4-yloxy)-4-(4-{[2-(4-chlorophenyl)-4,4-dimethylcyclohex-1-en-1-yl]methyl}piperazin-1-yl)-N-{[4-({[4-(2,2-difluoroethyl)morpholin-2-yl]methyl}amino)-3-nitrophenyl]sulfonyl}benzamide], for which the “Binding selectivity ratio” value was determined as 17326.89211.

On to `CC(C)n1cc(CN2CCN(c3ccc(C(=O)NS(=O)(=O)c4ccc(NCC5CCOCC5)c([N+](=O)[O-])c4)c(Oc4ccc5[nH]ccc5c4)c3)CC2)c(-c2ccc(Cl)cc2)cc1=O` [EXAMPLE 307, 4-(4-{[4-(4-chlorophenyl)-1-isopropyl-6-oxo-1,6-dihydropyridin-3-yl]methyl}piperazin-1-yl)-2-(1H-indol-5-yloxy)-N-({3-nitro-4-[(tetrahydro-2H-pyran-4-ylmethyl)amino]phenyl}sulfonyl)benzamide], for which the “Binding selectivity ratio” value is reported as above 177.1.

As to `CN(C)CCCOc1ccc(-c2ccc(Cl)cc2)c(CN2CCN(c3ccc(C(=O)NS(=O)(=O)c4ccc(NCC5CCOCC5)c(S(=O)(=O)C(F)(F)F)c4)c(Oc4ccccc4)c3)CC2)c1` [Example 119, 4-[4-({4′-chloro-4-[3-(dimethylamino)propoxy]-1,1′-biphenyl-2-yl}methyl)piperazin-1-yl]-2-phenoxy-N-({4-[(tetrahydro-2H-pyran-4-ylmethyl)amino]-3-[(trifluoromethyl)sulfonyl]phenyl}sulfonyl)benzamide], the “Binding selectivity ratio” value is 370.2.

As for `CC1(C)CCC(CN2CCN(c3ccc(C(=O)NS(=O)(=O)c4cnc(OC[C@@H]5CCN(CC(F)F)C5)c(Cl)c4)c(Oc4cccc5[nH]ncc45)c3)CC2)=C(c2ccc(Cl)cc2)C1` [EXAMPLE 445, N-[(5-chloro-6-{[(3R)-1-(2,2-difluoroethyl)pyrrolidin-3-yl]methoxy}pyridin-3-yl)sulfonyl]-4-(4-{[2-(4-chlorophenyl)-4,4-dimethylcyclohex-1-en-1-yl]methyl}piperazin-1-yl)-2-(1H-indazol-4-yloxy)benzamide], the “Binding selectivity ratio” value was 484.2.

Consider `CN1CC(Nc2ccc(S(=O)(=O)NC(=O)c3ccc(N4CCN(CC5=C(c6ccc(Cl)cc6)CC(C)(C)CC5)CC4)cc3Oc3ccc4[nH]ccc4c3)cc2[N+](=O)[O-])CCC1=O` (stereo not shown) [EXAMPLE 282, 4-(4-{[2-(4-chlorophenyl)-4,4-dimethylcyclohex-1-en-1-yl]methyl}piperazin-1-yl)-2-(1H-indol-5-yloxy)-N-({4-[(1-methyl-6-oxopiperidin-3-yl)amino]-3-nitrophenyl}sulfonyl)benzamide], for which the “Binding selectivity ratio” value was determined as 3434.4.
